Test results from ChEMBL document CHEMBL4665643 (Bioorg Med Chem Lett, 2019).

Tests used:
[1] = target: T1, Tyrosine-protein kinase JAK1 (Homo sapiens, UniProt P23458); assay: biochemical
Description: Inhibition of recombinant human JAK1 (854 to 1154 residues) expressed in insect cells using Y1-B as substrate incubated for 30 mins by microfluidic mobility shift assay

[2] = target: Janus Kinase (JAK) (Homo sapiens, UniProt P52333+P23458+O60674+P29597); conditions: beas-2b
Description: Inhibition of JAK in human BEAS-2B cells assessed as reduction in IL13-induced STAT6 phosphorylation incubated for 1 hr followed by IL13 addition and measured after 15 mins by immunofluorescence assay

[3] = target: Tyrosine-protein kinase JAK2 (Homo sapiens, UniProt O60674)
Description: Inhibition of recombinant human JAK2 (812 to 1132 residues) expressed in insect cells using Y1-B as substrate incubated for 30 mins by microfluidic mobility shift assay

[4] = Lipophilicity, logD of compound; assay type: physicochemical; conditions: octanol/water
[5] = in vitro; conditions: dog, MDCK
Description: Apparent permeability across apical to basolateral side in MDCK cells at 10 uM incubated upto 180 mins by LC/MS-MS analysis

[6] = in vitro; conditions: dog, MDCK; remark: listed apart in the source
Description: Efflux ratio of apparent permeability basolateral to apical over apical to basolateral side in MDCK cells at 10 uM incubated upto 180 mins by LC/MS-MS analysis

[7] = Metabolic stability in human liver microsomes assessed as intrinsic clearance at 1 uM measured upto 60 mins by LC-MS/MS analysis; assay type: ADME, Microsome; conditions: read-out: CLH
[8] = target: LRRK2 (Homo sapiens, UniProt Q5S007); assay: Inhibition of recombinant human GST-tagged LRRK2 (970 to 2527 residues) expressed in baculovirus expression system using LRRKtide as substrate at 0.1 uM incubated for 60 mins by Adapta assay relative to control; conditions: probe LRRKtide
Sequence of LRRK2 (Q5S007 whole entry, the tested form may be a part): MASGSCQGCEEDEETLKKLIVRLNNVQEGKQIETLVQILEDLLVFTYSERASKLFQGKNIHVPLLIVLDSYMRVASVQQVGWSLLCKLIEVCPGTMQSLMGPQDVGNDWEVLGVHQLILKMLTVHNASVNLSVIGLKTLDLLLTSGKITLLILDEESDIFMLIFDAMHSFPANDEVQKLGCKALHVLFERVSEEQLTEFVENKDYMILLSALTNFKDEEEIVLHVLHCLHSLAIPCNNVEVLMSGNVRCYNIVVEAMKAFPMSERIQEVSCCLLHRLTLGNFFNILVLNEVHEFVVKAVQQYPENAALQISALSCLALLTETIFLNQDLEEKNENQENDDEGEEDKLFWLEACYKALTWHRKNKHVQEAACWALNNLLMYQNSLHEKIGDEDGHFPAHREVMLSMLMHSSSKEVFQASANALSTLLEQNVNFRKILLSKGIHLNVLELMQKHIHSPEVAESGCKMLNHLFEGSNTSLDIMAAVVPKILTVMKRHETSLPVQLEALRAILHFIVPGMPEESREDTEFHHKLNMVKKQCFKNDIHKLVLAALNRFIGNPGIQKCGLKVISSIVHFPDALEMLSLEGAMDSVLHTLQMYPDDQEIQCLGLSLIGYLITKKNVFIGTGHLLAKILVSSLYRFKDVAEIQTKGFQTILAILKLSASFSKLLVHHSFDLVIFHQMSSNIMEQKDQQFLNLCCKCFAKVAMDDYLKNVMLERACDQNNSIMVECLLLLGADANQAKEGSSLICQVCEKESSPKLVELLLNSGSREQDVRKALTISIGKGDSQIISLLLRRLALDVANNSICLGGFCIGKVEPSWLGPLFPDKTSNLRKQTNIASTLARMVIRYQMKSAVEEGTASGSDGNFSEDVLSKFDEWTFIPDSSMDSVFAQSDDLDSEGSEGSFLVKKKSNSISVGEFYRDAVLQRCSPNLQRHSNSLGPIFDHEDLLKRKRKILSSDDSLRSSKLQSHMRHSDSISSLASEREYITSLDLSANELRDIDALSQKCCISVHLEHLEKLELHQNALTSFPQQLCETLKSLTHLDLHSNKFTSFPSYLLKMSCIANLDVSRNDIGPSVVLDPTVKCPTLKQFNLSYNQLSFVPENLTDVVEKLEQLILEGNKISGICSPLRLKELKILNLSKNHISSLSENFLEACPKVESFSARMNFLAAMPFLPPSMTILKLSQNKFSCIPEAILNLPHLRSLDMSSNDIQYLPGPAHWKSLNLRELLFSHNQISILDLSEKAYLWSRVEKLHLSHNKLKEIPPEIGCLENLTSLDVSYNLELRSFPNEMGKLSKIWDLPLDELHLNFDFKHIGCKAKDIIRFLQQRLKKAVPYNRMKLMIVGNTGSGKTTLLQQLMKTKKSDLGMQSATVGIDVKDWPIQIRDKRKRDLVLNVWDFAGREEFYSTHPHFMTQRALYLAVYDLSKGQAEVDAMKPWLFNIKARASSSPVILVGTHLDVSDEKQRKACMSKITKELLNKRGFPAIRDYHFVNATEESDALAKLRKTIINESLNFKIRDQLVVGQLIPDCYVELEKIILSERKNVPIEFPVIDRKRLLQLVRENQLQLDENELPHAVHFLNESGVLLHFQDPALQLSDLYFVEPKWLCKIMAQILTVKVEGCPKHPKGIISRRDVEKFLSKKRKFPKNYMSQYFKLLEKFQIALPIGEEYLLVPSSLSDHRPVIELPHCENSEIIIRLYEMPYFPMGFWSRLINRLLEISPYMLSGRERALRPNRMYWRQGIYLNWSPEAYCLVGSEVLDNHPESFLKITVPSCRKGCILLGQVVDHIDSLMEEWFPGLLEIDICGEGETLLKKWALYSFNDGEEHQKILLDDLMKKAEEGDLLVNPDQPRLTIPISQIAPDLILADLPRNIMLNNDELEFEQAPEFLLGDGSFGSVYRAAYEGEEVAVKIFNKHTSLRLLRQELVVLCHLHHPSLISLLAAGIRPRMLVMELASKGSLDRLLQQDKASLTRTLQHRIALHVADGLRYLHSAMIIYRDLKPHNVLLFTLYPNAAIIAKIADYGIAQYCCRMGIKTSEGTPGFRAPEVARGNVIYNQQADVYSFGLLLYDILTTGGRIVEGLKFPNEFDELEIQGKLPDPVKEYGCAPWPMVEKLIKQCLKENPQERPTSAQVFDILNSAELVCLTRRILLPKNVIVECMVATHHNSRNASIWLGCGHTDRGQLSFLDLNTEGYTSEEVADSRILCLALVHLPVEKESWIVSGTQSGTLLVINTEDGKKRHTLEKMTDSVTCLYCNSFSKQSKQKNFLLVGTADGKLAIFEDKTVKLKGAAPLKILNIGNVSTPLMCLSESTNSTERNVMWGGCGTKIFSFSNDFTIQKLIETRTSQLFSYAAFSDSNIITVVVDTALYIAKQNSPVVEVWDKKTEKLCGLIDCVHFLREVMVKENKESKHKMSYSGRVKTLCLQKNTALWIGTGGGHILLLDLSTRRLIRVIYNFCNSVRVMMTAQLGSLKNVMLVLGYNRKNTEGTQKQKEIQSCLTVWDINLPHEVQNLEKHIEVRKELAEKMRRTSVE

[9] = organism: Homo sapiens
[10] = target: T1, Tyrosine-protein kinase JAK1
[11] = target: Leucine-rich repeat serine/threonine-protein kinase 2 (Homo sapiens, UniProt Q5S007); assay: Inhibition of recombinant human GST-tagged LRRK2 (970 to 2527 residues) expressed in baculovirus expression system using LRRKtide as substrate incubated for 60 mins by Adapta assay
Sequence of Leucine-rich repeat serine/threonine-protein kinase 2 (Q5S007 whole entry, the tested form may be a part): as above

Sequence of Tyrosine-protein kinase JAK2 (O60674 whole entry): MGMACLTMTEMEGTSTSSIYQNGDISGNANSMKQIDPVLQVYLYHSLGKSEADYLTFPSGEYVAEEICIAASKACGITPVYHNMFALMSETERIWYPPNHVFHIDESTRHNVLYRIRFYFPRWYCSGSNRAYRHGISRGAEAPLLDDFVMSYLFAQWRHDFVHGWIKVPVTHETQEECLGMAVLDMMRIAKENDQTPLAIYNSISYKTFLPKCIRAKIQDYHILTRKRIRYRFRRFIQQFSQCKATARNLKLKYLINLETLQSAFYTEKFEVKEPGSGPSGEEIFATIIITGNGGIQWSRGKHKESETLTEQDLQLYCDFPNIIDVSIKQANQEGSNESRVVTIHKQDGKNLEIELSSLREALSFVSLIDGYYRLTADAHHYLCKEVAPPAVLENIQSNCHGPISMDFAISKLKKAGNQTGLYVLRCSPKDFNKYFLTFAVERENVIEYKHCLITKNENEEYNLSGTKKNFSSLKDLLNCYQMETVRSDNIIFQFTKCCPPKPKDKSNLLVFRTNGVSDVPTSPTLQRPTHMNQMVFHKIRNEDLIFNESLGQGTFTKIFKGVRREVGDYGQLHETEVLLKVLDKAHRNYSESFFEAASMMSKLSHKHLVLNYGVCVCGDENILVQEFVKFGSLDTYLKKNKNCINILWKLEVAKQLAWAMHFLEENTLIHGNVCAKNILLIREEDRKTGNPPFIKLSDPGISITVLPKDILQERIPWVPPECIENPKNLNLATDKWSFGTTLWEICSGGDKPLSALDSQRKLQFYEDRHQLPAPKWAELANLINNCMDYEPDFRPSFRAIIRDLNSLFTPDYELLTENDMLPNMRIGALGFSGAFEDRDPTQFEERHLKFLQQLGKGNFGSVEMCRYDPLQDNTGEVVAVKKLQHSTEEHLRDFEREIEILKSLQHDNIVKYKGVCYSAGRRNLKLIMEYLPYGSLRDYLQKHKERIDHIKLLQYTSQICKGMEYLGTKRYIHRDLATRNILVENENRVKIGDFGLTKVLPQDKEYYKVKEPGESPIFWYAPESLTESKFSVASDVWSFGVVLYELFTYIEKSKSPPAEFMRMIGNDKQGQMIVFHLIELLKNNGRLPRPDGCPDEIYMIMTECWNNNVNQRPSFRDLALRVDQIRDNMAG
T1 sequence (P23458 whole entry): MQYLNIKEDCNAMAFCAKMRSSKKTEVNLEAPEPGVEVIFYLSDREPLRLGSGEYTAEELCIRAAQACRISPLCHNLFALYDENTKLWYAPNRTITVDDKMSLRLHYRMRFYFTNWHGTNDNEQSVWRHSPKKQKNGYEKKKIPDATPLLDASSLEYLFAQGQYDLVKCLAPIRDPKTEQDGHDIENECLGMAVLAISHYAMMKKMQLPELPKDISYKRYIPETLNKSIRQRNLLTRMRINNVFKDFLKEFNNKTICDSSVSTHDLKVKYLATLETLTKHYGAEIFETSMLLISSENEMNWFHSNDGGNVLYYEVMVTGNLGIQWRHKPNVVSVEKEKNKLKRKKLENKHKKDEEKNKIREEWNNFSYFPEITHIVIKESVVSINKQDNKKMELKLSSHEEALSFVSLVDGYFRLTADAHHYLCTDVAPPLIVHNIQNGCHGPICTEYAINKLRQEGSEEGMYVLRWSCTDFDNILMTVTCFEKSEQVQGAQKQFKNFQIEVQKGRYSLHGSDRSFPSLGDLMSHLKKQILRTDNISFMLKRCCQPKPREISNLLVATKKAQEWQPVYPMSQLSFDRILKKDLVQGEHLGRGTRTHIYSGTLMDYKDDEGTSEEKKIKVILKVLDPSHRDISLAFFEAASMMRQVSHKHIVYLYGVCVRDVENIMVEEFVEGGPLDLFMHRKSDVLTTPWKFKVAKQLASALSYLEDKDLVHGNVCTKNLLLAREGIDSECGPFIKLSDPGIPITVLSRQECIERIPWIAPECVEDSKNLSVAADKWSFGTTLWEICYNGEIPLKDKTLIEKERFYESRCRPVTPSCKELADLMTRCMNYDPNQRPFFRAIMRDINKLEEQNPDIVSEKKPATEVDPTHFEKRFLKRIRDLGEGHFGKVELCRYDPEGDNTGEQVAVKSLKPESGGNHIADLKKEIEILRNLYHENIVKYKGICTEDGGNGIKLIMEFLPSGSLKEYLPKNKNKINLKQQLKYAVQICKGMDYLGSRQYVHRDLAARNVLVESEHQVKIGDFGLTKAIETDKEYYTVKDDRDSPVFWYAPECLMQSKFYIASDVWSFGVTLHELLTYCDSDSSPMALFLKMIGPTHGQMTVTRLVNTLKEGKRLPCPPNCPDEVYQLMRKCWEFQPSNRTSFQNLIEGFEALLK

Row | Ki [1] [nM] | IC50 [2] [nM] | Ki [3] [nM] | SMILES | further results
1 | 0.51 | 9.2 | 0.17 | O=C(Nc1c[nH]nc1-c1cc(Cl)ccc1OC(F)F)c1cncc2scnc12 | 
2 | 1.9 | 38 | 0.62 | COc1ccc(Cl)cc1-c1nn(C)cc1NC(=O)c1cncc2cccnc12 | 
3 |  |  |  | Cn1cc(NC(=O)c2cnn3cccnc23)c(-c2cc(Cl)ccc2Cl)n1 | logD [4]: 2.9; Papp A→B at 3 h, 10 µM [5]: 20 ×10⁻⁶ cm/s
4 | 5.7 |  | 2.6 | COc1ccc(Cl)cc1-c1nn(C)cc1NC(=O)c1cncc2[nH]cnc12 | 
5 | 39 | > 1000 | 3.5 | Cn1ncc(NC(=O)c2cnn3cccnc23)c1-c1cc(Cl)ccc1Cl | 
6 | 1.3 | 21 | 0.45 | O=C(Nc1c[nH]nc1-c1cc(Cl)ccc1OC1CC1)c1cnn2cccnc12 | 
7 |  | 13 | 0.078 | C#Cc1ccc2ncc(C(=O)Nc3c[nH]nc3-c3cc(Cl)ccc3OC(F)F)n2n1 | 
8 | 0.15 | 2.8 | 0.045 | O=C(Nc1c[nH]nc1-c1cc(I)ccc1OC(F)F)c1cnn2cccnc12 | efflux ratio at 3 h, 10 µM [6]: 1; CLint scaled at 1 µM [7]: 15 mL/min/kg; logD [4]: 3.4; Papp A→B at 3 h, 10 µM [5]: 15 ×10⁻⁶ cm/s; inhibition at 1 h, 0.1 µM [8]: 91%
9 | 0.6 | 20 | 0.78 | COc1ccc(Cl)cc1-c1nn(C)cc1NC(=O)c1cncc2c[nH]nc12 | 
10 | 1.4 | 54 | 0.8 | CCOc1ccc(Cl)cc1-c1n[nH]cc1NC(=O)c1cnn2cccnc12 | 
11 | 3.3 |  | 0.86 | O=C(Nc1c[nH]nc1-c1ccccc1OC(F)F)c1cnn2cccnc12 | 
12 | 0.46 | 11 | 0.23 | CSc1ccc(Cl)cc1-c1nn(C)cc1NC(=O)c1cnn2cccnc12 | 
13 | 0.075 | 40 | 0.052 | O=C(Nc1c[nH]nc1-c1cc2cn[nH]c2cc1OC(F)F)c1cnn2cccnc12 | efflux ratio at 3 h, 10 µM [6]: 1; CLint scaled at 1 µM [7]: 4.4 mL/min/kg; logD [4]: 1.6; Papp A→B at 3 h, 10 µM [5]: 1.6 ×10⁻⁶ cm/s; inhibition at 1 h, 0.1 µM [8]: 89%
14 | 2.1 | 64 | 0.49 | O=C(Nc1c[nH]nc1-c1cc(Cl)ccc1OC(F)(F)F)c1cnn2cccnc12 | 
15 | 0.71 | 34 | 0.19 | O=C(Nc1c[nH]nc1-c1cc(F)ccc1OC(F)F)c1cnn2cccnc12 | 
16 | 0.21 | 5 | 0.071 | O=C(Nc1c[nH]nc1-c1cc(Cl)ccc1OC(F)F)c1cnc2cccnn12 | 
17 | 0.91 |  | 0.28 | Cn1cc(NC(=O)c2cnn3cccnc23)c(-c2cc(Cl)ccc2C2CC2)n1 | 
18 | 0.99 | 34 | 0.1 | Cc1ccn2ncc(C(=O)Nc3c[nH]nc3-c3cc(Cl)ccc3OC(F)F)c2n1 | 
19 | 3.9 |  | 1.1 | Cc1nc(-c2cc(Cl)ccc2OC(F)F)c(NC(=O)c2cnn3cccnc23)[nH]1 | 
20 | 4.3 | 93 | 4.7 | COc1ccc(Cl)cc1-c1nn(C)cc1NC(=O)c1cncc2cn(C)nc12 | 
21 | 23 | 1300 |  | Cc1cc(Nc2nccc3nc(-c4c(Cl)cc(C#N)cc4Cl)[nH]c23)ncn1 | efflux ratio at 3 h, 10 µM [6]: 0.81; Papp A→B at 3 h, 10 µM [5]: 16 ×10⁻⁶ cm/s
22 | 2.9 | 210 |  | C[C@@H](O)c1nc2cnc3[nH]ccc3c2n1[C@H]1CCCOC1 | efflux ratio at 3 h, 10 µM [6]: 0.81; Papp A→B at 3 h, 10 µM [5]: 6.2 ×10⁻⁶ cm/s
23 | 7.8 |  | 2.4 | O=C(Nc1c[nH]nc1-c1cc(Cl)ccc1OC(F)F)c1cnn2cc(F)cnc12 | 
24 | 0.12 | 3.3 | 0.047 | O=C(Nc1c[nH]nc1-c1cc(Br)ccc1OC(F)F)c1cnn2cccnc12 | efflux ratio at 3 h, 10 µM [6]: 1.2; CLint scaled at 1 µM [7]: 15 mL/min/kg; logD [4]: 3.2; Papp A→B at 3 h, 10 µM [5]: 17 ×10⁻⁶ cm/s; inhibition at 1 h, 0.1 µM [8]: 86%
25 | 360 | > 1000 |  | CCn1c(C(=O)N(C2CC2)C2CC2)cc2c3c(ncn3C)c(Nc3cc(C)n(C)n3)nc21 [BMS-911543] | efflux ratio at 3 h, 10 µM [6]: 0.94; Papp A→B at 3 h, 10 µM [5]: 16 ×10⁻⁶ cm/s

Row | Ki [1] [nM] | IC50 [2] [nM] | Ki [3] [nM] | SMILES | further results
26 | 5.6 | 42 | 0.96 | O=C(Nc1c[nH]nc1-c1cc(Cl)ccc1OC(F)F)c1cnc2[nH]ccc2n1 | 
27 | 45 |  | 8.6 | Cn1cc(NC(=O)c2cnn3cccnc23)c(-c2cc(Cl)ccc2CO)n1 | 
28 | 0.47 | 20 | 0.085 | O=C(Nc1c[nH]nc1-c1cc(Cl)ccc1OC(F)F)c1snc2cccnc12 | 
29 | 0.89 | 23 | 0.36 | COc1ccc(Cl)cc1-c1n[nH]cc1NC(=O)c1cnn2cccnc12 | 
30 | 12 |  | 4 | Cn1cc(NC(=O)c2cnn3cccnc23)c(-c2cc(Cl)ccc2CCO)n1 | 
31 | 0.11 | 36 | 0.057 | O=C(Nc1c[nH]nc1-c1cc(Cl)c(O)cc1OC(F)F)c1cnn2cccnc12 | 
32 | 1.4 | 27 | 0.34 | Cc1ccc(OC(F)F)c(-c2n[nH]cc2NC(=O)c2cnn3cccnc23)c1 | 
33 | 0.99 | 58 | 0.45 | COc1ccc(Cl)cc1-c1nc(C)sc1NC(=O)c1cnn2cccnc12 | 
34 | 0.9 | 22 | 0.27 | N#Cc1ccc(OC(F)F)c(-c2n[nH]cc2NC(=O)c2cnn3cccnc23)c1 | 
35 | 2.2 | 42 | 0.79 | COc1cc(F)c(Cl)cc1-c1n[nH]cc1NC(=O)c1cnn2cccnc12 | 
36 | 0.19 | 4 | 0.042 | Nc1nn2cccnc2c1C(=O)Nc1c[nH]nc1-c1cc(Cl)ccc1OC(F)F | efflux ratio at 3 h, 10 µM [6]: 0.83; CLint scaled at 1 µM [7]: 11 mL/min/kg; logD [4]: 3.3; Papp A→B at 3 h, 10 µM [5]: 15 ×10⁻⁶ cm/s; inhibition at 1 h, 0.1 µM [8]: 99%
37 | 7.9 |  | 2 | CC(C)Oc1ccc(Cl)cc1-c1nn(C)cc1NC(=O)c1cnn2cccnc12 | 
38 | 0.95 | 15 | 0.29 | COc1ccc(Cl)c(F)c1-c1n[nH]cc1NC(=O)c1cnn2cccnc12 | 
39 | 0.31 | 140 | 0.16 | COc1cc(O)c(Cl)cc1-c1n[nH]cc1NC(=O)c1cnn2cccnc12 | 
40 | 9.2 |  | 1.2 | COc1c(F)cc(Cl)cc1-c1n[nH]cc1NC(=O)c1cnn2cccnc12 | 
41 | 1.8 | 36 | 0.5 | O=C(Nc1c[nH]nc1-c1cc(Cl)ccc1OC(F)F)c1cncc2ccoc12 | 
42 |  | 370 |  | COc1cc2[nH]ncc2cc1-c1n[nH]cc1NC(=O)c1cnn2cccnc12 | 
43 | 370 |  | 730 | COc1ccc(Cl)cc1-c1nn(C)cc1NC(=O)c1cncc2[nH]nnc12 | 
44 | 0.53 | 13 | 0.19 | CCc1ccc(OC(F)F)c(-c2n[nH]cc2NC(=O)c2cnn3cccnc23)c1 | 
45 | 0.85 | 26 | 0.23 | O=C(Nc1c[nH]nc1-c1cc(Cl)ccc1SC(F)F)c1cnn2cccnc12 | 
46 |  |  |  | CC[C@@H]1CN(C(=O)NCC(F)(F)F)C[C@@H]1c1cnc2cnc3[nH]ccc3n12 [UPADACITINIB] | Papp A→B at 3 h, 10 µM [5]: 3.6 ×10⁻⁶ cm/s
47 | 32 |  | 13 | Cn1cc(NC(=O)c2cnn3cccnc23)c(-c2cc(Cl)ccc2O)n1 | 
48 | 0.56 | 18 | 0.49 | O=C(Nc1c[nH]nc1-c1cc(Cl)ccc1OC(F)F)c1cncc2c[nH]nc12 | efflux ratio at 3 h, 10 µM [6]: 1.9; CLint scaled at 1 µM [7]: 15 mL/min/kg; logD [4]: 2.7; Papp A→B at 3 h, 10 µM [5]: 9.5 ×10⁻⁶ cm/s; Ratio IC50 [9]: 41; IC50 [10]: 1.9 nM; inhibition at 1 h, 0.1 µM [8]: 52%; IC50 [11]: 79 nM
49 | 0.56 | 14 | 0.16 | O=C(Nc1c[nH]nc1-c1c(OC(F)F)ccc(Cl)c1F)c1cnn2cccnc12 | 
